From patent US9540358B2, “Tricyclic compounds as anticancer agents” (ICAHN SCHOOL OF MEDICINE AT MOUNT SINAI, priority 2011, dated 2017)

The compounds below were run on H1650 lung cancer cells (assay: Cell viability assay (MTT, IC50 determination)). Details: 48 hours after drug treatment, MTT.
Assay type: cell-based
Description: 89(22): p. […] H1650 lung cancer cells were plated at 150,000 cells per well in a 12 well plate. Twenty-four hours after plating, cells were treated as described with increasing concentrations of drug and control. Forty-eight hours after drug treatment, cells were treated with 100 μL of 3-(4,5-Dimethylthiazol-2-yl)-2,5-diphenyltetrazolium bromide (MTT) and incubated for 2 hours at 37 C. The MTT solution was subsequently replaced with 300 μL of n-propyl alcohol and re-aliquoted to a 96 well plates. Spectrophotometric analysis of each solution was performed using a 96 well plate reader at 600 nm in triplicate.

| Structure (SMILES) | IC50 (Cell Viability Data) |
| --- | --- |
| O=S(=O)(NCCCN1c2ccccc2CCc2ccccc21)c1cnc(Cl)c(Br)c1 [Example 81, 5-bromo-6-chloro-N-(3-(10,11-dihydro-5H-dibenzo[V]azepin-5-yl)propyl)pyridine-3-sulfonamide] | INACTIVE |
| CC(=O)Nc1nc(C)c(S(=O)(=O)NCCCN2c3ccccc3CCc3ccccc32)s1 [Example 82, N-(5-(N-(3-(10,11-dihydro-5H-dibenzo[b,f]azepin-5-yl)propyl)sulfamoyl)-4-methylthiazol-2-yl)acetamide] | INACTIVE |
| COC(=O)NCCN1c2ccccc2Sc2ccc(Cl)cc21 [Example 83] | INACTIVE |
| O=S(=O)(NCCCN1c2ccccc2CCc2ccc(Cl)cc21)c1ccccc1OC(F)(F)F [Example 86] | INACTIVE |

Same assay, conditions: Homo sapiens, NCI-H1650, 48 hours after drug treatment, MTT

| IC50 [µM] | Structure (SMILES) |
| --- | --- |
| ~35 | Nc1ccc2c(c1)N(CCCNS(=O)(=O)c1ccc(C(F)(F)F)cc1)c1ccccc1CC2 [Example 43, N-(3-(3-amino-10,11-dihydro-5H-dibenzo[b,f]azepin-5-yl)propyl)-4-(trifluoromethyl)benzenesulfonamide] |
| ~30 | [N-]=[N+]=Nc1ccc2c(c1)N(CCCNS(=O)(=O)c1ccc(C(F)(F)F)cc1)c1ccccc1CC2 [Example 44, N-(3-(3-azido-10,11-dihydro-5H-dibenzo[b,f]azepin-5-yl)propyl)-4-(trifluoromethyl)benzenesfulfonamide] |
| ~25 | O=S(=O)(NCCCN1c2ccccc2CCc2ccc(Cl)cc21)c1ccccc1 [Example 45, N-(3-(3-chloro-10,11-dihydro-5H-dibenzo[b,f]azepin-5-yl)propyl)benzenesulfonamide] |
| ~30 | O=S(=O)(NCCN1c2ccccc2Sc2ccccc21)c1ccc(OC(F)(F)F)cc1 [Example 46, N-(2-(10H-phenothiazin-10-yl)ethyl)-4-trifluoromethoxybenzenesulfonamide] |
| ~30 | O=S(=O)(NCCN1c2ccccc2Sc2ccccc21)c1ccc(Cl)cc1 [Example 47, N-(2-(10H-phenothiazin-10-yl)ethyl)-4-chlorobenzenesulfonamide] |
| ~15 | O=S(=O)(NCCC=C1c2ccccc2CCc2ccccc21)c1ccc(Cl)cc1 [Example 50, 4-Chloro-N-(3-(10,11-dihydro-5H-dibenzo[a,d][7]annulen-5-ylidene)propyl)benzenesulfonamide] |
| ~20 | O=S(=O)(NCCC=C1c2ccccc2CCc2ccccc21)c1ccc(OC(F)(F)F)cc1 [Example 51, N-(3-(10,11-dihydro-5H-dibenzo[a,d][7]annulen-5-ylidene)propyl)-4-(trifluoromethoxy)benzenesulfonamide] |
| ~10 | O=S(=O)(NCCCN1c2ccc(Cl)cc2CCc2cc(Cl)ccc21)c1ccc(Cl)cc1 [Example 52, 4-Chloro-N-(3-(2,8-dichloro-10,11-dihydro-5H-dibenzo[b,f]azepin-5-yl)propyl)benzenesulfonamide] |
| ~10 | O=S(=O)(NCCCN1c2ccc(Cl)cc2CCc2cc(Cl)ccc21)c1ccc(OC(F)(F)F)cc1 [Example 53, 4-Trifluoromethoxy-N-(3-(2,8-dichloro-10,11-dihydro-5H-dibenzo[b,f]azepin-5-yl)propyl)benzenesulfonamide] |
| ~15 | O=S(=O)(NCCCN1c2ccccc2CCc2ccc(Cl)cc21)c1cccc(OC(F)(F)F)c1 [Example 54, N-(3-(3-chloro-10,11-dihydro-5H-dibenzo[b,f]azepin-5-yl)propyl)-3-(trifluoromethoxy)benzenesulfonamide] |
| ~25 | O=S(=O)(NCCNC1c2ccccc2CCc2ccccc21)c1ccc(Cl)cc1 [Example 55, 4-Chloro-N-(2-((10,11-dihydro-5H-dibenzo[a,d][7]annulen-5-yl)amino)ethyl)benzenesulfonamide] |
| ~25 | O=S(=O)(NCCNC1c2ccccc2CCc2ccccc21)c1ccc(OC(F)(F)F)cc1 [Example 56, 4-Trifluoromethoxy-N-(2-((10,11-dihydro-5H-dibenzo[a,d][7]annulen-5-yl)amino)ethyl)benzenesulfonamide] |
| ~10 | O=S(=O)(NCC(O)CN1c2ccccc2CCc2ccc(Cl)cc21)c1ccc(Cl)cc1 (centres unmarked) [Example 57, 4-Chloro-N-(3-(3-chloro-10,11-dihydro-5H-dibenzo[b,f]azepin-5-yl)-2-hydroxypropyl)benzenesulfonamide] |
| ~5 | O=S(=O)(NCC(O)CN1c2ccccc2CCc2ccc(Cl)cc21)c1ccc(OC(F)(F)F)cc1 (centres unmarked) [Example 58, 4-Trifluoromethoxy-N-(3-(3-chloro-10,11-dihydro-5H-dibenzo[b,f]azepin-5-yl)-2-hydroxypropyl)benzenesulfonamide] |
| ~25 | O=S(=O)(NCC(O)CN1c2ccccc2CCc2ccccc21)c1ccc(Cl)cc1 (centres unmarked) [Example 59, 4-Chloro-N-(3-(10,11-dihydro-5H-dibenzo[b,f]azepin-5-yl)-2-hydroxypropyl)benzenesulfonamide] |
| ~20 | O=S(=O)(NCCCN1c2ccccc2CCc2ccc(Cl)cc21)c1cc(Cl)c(Cl)s1 [Example 61, 4,5-dichloro-N-(3-(3-chloro-10,11-dihydro-5H-dibenzo[b,f]azepin-5-yl)propyl)thiophene-2-sulfonamide] |
| ~25 | O=S(=O)(NCCCN1c2ccccc2CCc2ccc(Cl)cc21)c1cc(Cl)sc1Cl [Example 62, 2,5-dichloro-N-(3-(3-chloro-10,11-dihydro-5H-dibenzo[b,f]azepin-5-yl)propyl)thiophene-3-sulfonamide] |

| IC50 [µM] | Structure (SMILES) |
| --- | --- |
| ~35 | O=C(CNS(=O)(=O)c1ccc(OC(F)(F)F)cc1)CN1c2ccccc2CCc2ccccc21 [Example 64, N-(3-(10,11-dihydro-5H-dibenzo[b,f]azepin-5-yl)-2-oxopropyl)-4-(trifluoromethoxy)benzenesulfonamide] |
| ~15 | N#CC(CNS(=O)(=O)c1ccc(OC(F)(F)F)cc1)CN1c2ccccc2CCc2ccccc21 (centres unmarked) [Example 65, N-(2-cyano-3-(10,11-dihydro-5H-dibenzo[b,f]azepin-5-yl)propyl)-4-(trifluoromethoxy)benzenesulfonamide] |
| ~20 | CC(CNS(=O)(=O)c1ccc(OC(F)(F)F)cc1)CN1c2ccccc2CCc2ccccc21 (centres unmarked) [Example 67, N-(3-(10,11-dihydro-5H-dibenzo[b,f]azepin-5-yl)-2-methylpropyl)-4-(trifluoromethoxy)benzenesulfonamide] |
| ~20 | CC(CNS(=O)(=O)c1ccc(Cl)cc1)CN1c2ccccc2CCc2ccccc21 (centres unmarked) [Example 68, 4-Chloro-N-(3-(10,11-dihydro-5H-dibenzo[b,f]azepin-5-yl)-2-methylpropyl)benzenesulfonamide] |
| ~20 | O=S(=O)(NCCCN1c2ccccc2CCc2cccc(Cl)c21)c1ccc(OC(F)(F)F)cc1 [Example 69, N-(3-(4-chloro-10,11-dihydro-5H-dibenzo[b,f]azepin-5-yl)propyl)-4-(trifluoromethoxy)benzenesulfonamide] |
| ~20 | O=S(=O)(NCCCN1c2ccccc2CCc2cccc(Cl)c21)c1ccc(Cl)cc1 [Example 70, 4-Chloro-N-(3-(4-chloro-10,11-dihydro-5H-dibenzo[b,f]azepin-5-yl)propyl)benzenesulfonamide] |
| 25 | N#Cc1ccc(S(=O)(=O)NCCC=C2c3ccccc3CCc3ccccc32)cc1 [Example 71, N-(3-(10,11-dihydro-5H-dibenzo[a,d][7]annulen-5-ylidene)propyl)-4-cyanobenzenesulfonamide] |
| 20 | O=S(=O)(NCCC=C1c2ccccc2CCc2ccccc21)c1ccc(F)cc1 [Example 72, N-(3-(10,11-dihydro-5H-dibenzo[a,d][7]annulen-5-ylidene)propyl)-4-fluorobenzenesulfonamide] |
| 20 | O=S(=O)(NC1CCC(N2c3ccccc3CCc3ccccc32)C1)c1ccc(OC(F)(F)F)cc1 (centres unmarked) [Example 76, N-(3-(10,11-dihydro-5H-dibenzo[b,f]azepin-5-yl)cyclopentyl)-4-(trifluoromethoxy)benzenesulfonamide] |
| 15 | O=S(=O)(NC1CCCC(=C2c3ccccc3CCc3ccccc32)C1)c1ccc(OC(F)(F)F)cc1 (centres unmarked) [Example 77, N-(3-(10,11-dihydro-5H-dibenzo[a,d][7]annulen-5-ylidene)cyclohexyl)-4-(trifluoromethoxy)benzenesulfonamide] |
| 15 | O=S(=O)(NC1CCCC(=C2c3ccccc3CCc3ccccc32)C1)c1ccc(Cl)cc1 (centres unmarked) [Example 78, N-(3-(10,11-dihydro-5H-dibenzo[a,d][7]annulen-5-ylidene)cyclohexyl)-4-chlorobenzenesulfonamide] |
| ~20 | O=S(=O)(NC1CCC(=C2c3ccccc3CCc3ccccc32)CC1)c1ccc(OC(F)(F)F)cc1 (centres unmarked) [Example 79, N-(4-(10,11-dihydro-5H-dibenzo[a,d][7]annulen-5-ylidene)cyclohexyl)-4-(trifluoromethoxy)benzenesulfonamide] |
| ~20 | O=S(=O)(NC1CCC(=C2c3ccccc3CCc3ccccc32)CC1)c1ccc(Cl)cc1 (centres unmarked) [Example 80, N-(4-(10,11-dihydro-5H-dibenzo[a,d][7]annulen-5-ylidene)cyclohexyl)-4-chlorobenzenesulfonamide] |
| ~25 | O=S(=O)(NCC(O)CN1c2ccccc2Sc2ccccc21)c1ccc(OC(F)(F)F)cc1 (centres unmarked) [Example 84] |
| ~15 | O=S(=O)(NCC(O)CN1c2ccccc2Sc2ccccc21)c1ccc(Cl)cc1 (centres unmarked) [Example 85] |
| ~15 | CS(=O)(=O)Nc1ccc2c(c1)N(CCCNS(=O)(=O)c1ccc(OC(F)(F)F)cc1)c1ccccc1CC2 [Example 87] |
| ~20 | CC(=O)Nc1ccc(S(=O)(=O)NCCCN2c3ccccc3CCc3ccc(Cl)cc32)cc1 [Example 88] |
